Measured values reported in patent US20240342186A1, “PYRIDINE DERIVATIVES WITH N-LINKED CYCLIC SUBSTITUENTS AS cGAS INHIBITORS” (Boehringer Ingelheim International GmbH, priority 2021, published 2024).
Where two headings read alike, the source gives them in different places.

How the values were obtained:
cGAS = cGAS (Homo sapiens (Human), UniProt Q8N884); experiment: Human cGAS enzyme assay (hcGAS IC50, in vitro), cGAMP formation by RapidFire MS; type: biochemical; details: biochemical (in vitro) cGAS inhibition;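 further: enzyme activated by 45 bp dsDNA with GTP and ATP (30 µM each), 60 min compound pre-incubation then 90 min reaction, cGAMP relative to cyclic-di-GMP internal standard, 8-point dilutions up to 10 µM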
cGAS, sequence (Q8N884 whole entry): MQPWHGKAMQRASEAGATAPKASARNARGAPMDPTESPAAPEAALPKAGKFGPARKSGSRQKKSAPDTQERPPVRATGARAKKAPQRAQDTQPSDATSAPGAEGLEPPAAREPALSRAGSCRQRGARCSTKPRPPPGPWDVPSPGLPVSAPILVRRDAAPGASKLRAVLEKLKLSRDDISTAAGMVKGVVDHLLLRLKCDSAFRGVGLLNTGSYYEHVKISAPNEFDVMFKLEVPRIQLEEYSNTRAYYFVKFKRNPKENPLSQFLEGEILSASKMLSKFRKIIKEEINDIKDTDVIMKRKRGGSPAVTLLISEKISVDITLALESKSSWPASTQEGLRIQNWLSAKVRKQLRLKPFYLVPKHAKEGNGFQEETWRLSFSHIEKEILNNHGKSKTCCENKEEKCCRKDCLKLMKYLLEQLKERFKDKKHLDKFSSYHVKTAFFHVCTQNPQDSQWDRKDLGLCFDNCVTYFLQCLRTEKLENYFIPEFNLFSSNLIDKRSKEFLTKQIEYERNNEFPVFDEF

[1] = system: cGAMP-stimulated THP1-Dual cells (pathway directly downstream of cGAS); experiment: cGAMP stimulated counter cell assay: inhibition of IFN induction in cGAMP-stimulated THP1 cells (THP1(cGAMP) IC50); type: cell-based, human; details: for IC50: read-out: THP1(cGAMP) IC50 (converted); for Ratio THP1(cGAMP) IC50 / THP1(vir) IC50: selectivity for cGAS inhibition
From the text: (§1) 6.2 Method: Human cGAS Cell Assay and cGAMP Stimulated Counter Cell Assay (THP1(vir) IC50 and THP1(cGAMP) IC50)
(§2) THP1-Dual™ cells (InvivoGen #thpd-nfis) expressing IRF dependent Lucia luciferase reporter were used as basis for both assays. For the detection of cellular cGAS activity cells were stimulated by a baculovirus (pFastbac-1, Invitrogen, no coding insert) infection that delivers the cGAS enzyme stimulating double-stranded DNA (measurement of THP1(vir) IC50).
(§3) For the counter assay, cells were stimulated by cGAMP (SigmaAldrich #SML1232) to activate the identical pathway independent and directly downstream of cGAS (measurement of THP1(cGAMP) IC50). Pathway activity was monitored by measuring the Lucia luciferase activity induced by either DNA stimulated cGAS enzyme activity (measurement of THP1(vir) IC50) or by cGAMP directly (measurement of THP1(cGAMP) IC50, counter assay).
(§4) Compounds were delivered in 10 mM DMSO solution, serially diluted and transferred to the 384 well assay plate (Greiner #781201) using an Echo acoustic dispenser. Typically, 8 concentrations were used with the highest concentration at 10 μM in the final assay volume followed by ˜1:5 dilution steps. DMSO concentration was set to 1% in the final assay volume. The 384 well assay plate contained 21 test compounds (column 1-22), and DMSO in column 23 and 24.
(§5) Cells, cultivated according to manufacturer conditions, were harvested by centrifugation at 300 g/10 min and were then resuspended and diluted to 1.66E5 cells/ml in fresh cell culture medium (RPMI 1640 (Gibco #A10491-01), 10% FCS (Gibco #10500), 1× GlutaMax (Gibco #35050-061), 1× Pen/Strep solution (Gibco #15140-122), 100 μg/ml Normocin (InvivoGen #ant-nr), 100 μg/ml Zeocin (InvivoGen #ant-zn), 10 μg/ml Blasticidin S (Life Technologies #A11139-03)). The baculovirus solution was then added 1:200 (have varied according to virus batch) to the cells (measurement of THP1(vir) IC50).
(§6) 30 μL of the cell/virus-mix were added to each well of the compound plate from column 1-23 via MultiDrop Combi dispenser (5000 cells/well). In column 24, 30 μl/5000 cells/well without virus were added as a low control.
(§7) The plates were then incubated for 18 h at 37° C. in a humidified incubator.
(§8) Following that, 15 μl of QuantiLuc detection reagent (InvivoGen #rep-qlcg5) were added to each well using a MultiDrop Combi. Measurement was done immediately after the addition using an EnVision reader (US-luminescence read-mode).
(§9) For data evaluation and calculation, the measurement of the low control was set as 0% control and the measurement of the high control was set as 100% control. The IC50 values were calculated using the standard 4 parameter logistic regression formula. Calculation: [y=(a−d)/(1+(x/c)^b)+d], a=low value, d=high value; x=conc M; c=IC50 M; b=slope

[2] = system: cellular cGAS activity in dsDNA-stimulated human whole blood; experiment: Human whole blood assay (hWB IC50): IFNα2α production after dsDNA transfection; type: cell-based; details: inhibition of IFN induction in dsDNA-stimulated human whole blood
Protocol: 6.3 Method: Human Whole Blood Assay (Human WB IC50)
For the detection of cellular cGAS activity human whole blood was stimulated by transfection with double stranded DNA. Pathway activity was monitored by measuring the IFNα2α production.
Compounds were delivered as 10 mM DMSO solution and serially diluted and transferred to the 96-well cell culture plate (Corning #3595), prefilled with 20 μl OptiMEM (Gibco, #11058-021) in each well, using an Echo acoustic dispenser. Typically, 8 concentrations were used with the highest concentration at 10 µM in the final assay volume followed by ˜1:5 dilution steps. DMSO concentration was set to 0.1% in the final assay volume. The 96-well assay plate contained 10 test compounds, and DMSO in control wells.
Collection of human whole blood from 3 or more healthy donors (male or female, no medication for 7 days except contraceptive and thyroxine) as Na-Citrate blood (e.g. 3.8% in Monovettes from Sarstedt) was conducted in parallel. Whole blood was kept at room temperature for a maximum of 3 hours after collection until use in the assay.
160 μl of the whole blood samples was transferred to each well of the 96-well assay plates filled with compound/OptiMEM. All assay plates were prepared as duplicates with blood from different donors. Blood plates were kept at room temperature for 60 minutes and continuous shaking with 450 rpm, covered with the lid, but not sealed.
20 μl OptiMEM and 9.6:1 Fugene was added to all low control wells.
After covering assay plates with aera seals and the lid, blood plates were kept at room temperature for 30 minutes and continuous shaking with 450 rpm, followed by an overnight incubation of 22 h at 37° C. in the incubator, without shaking.
For the detection of IFNα-2α in human plasma, the biotinylated capture antibody (Antibody set IFNA2, Meso Scale Diagnostics #B21VH-3, including coating and capture antibody) was diluted 1:17.5 in Diluent 100 (Meso Scale Diagnostics #R^50AA-4), according to the manufacturer's directions. U-Plex MSD GOLD 96-well Small Spot Strepavidin SECTOR Plates (Meso Scale Diagnostics #L45SA-5) were coated with 25 μl diluted capture antibody. Coated plates were incubated for 60 min at room temperature under continuous shaking at 700 rpm. MSD IFNα-2α plates were washed three times with 150 μl wash buffer (1x HBSS, 0.05% Tween).
After blocking the plates with 100 μl block solution/well (1x HBSS with 0.2% Tween, 2% BSA) for 60 min at room temperature and continuous shaking at 700 rpm, plates were emptied as dry as possible by dumping just before continuing with the human plasma.
Whole Blood assay plates were centrifuged at 1600 rpm for 10 minutes. 25 μl of supernatant was transferred with a pipetting robot from each whole blood plate to the corresponding IFNα-2α plate. Plates were sealed with microplate seals and kept at room temperature again under continuous shaking at 700 rpm for two hours.
Next MSD IFNα-2α plates were washed three times with 150 μl wash buffer (1×HBSS, 0.05% Tween), before adding 25 μl MSD SULFO-TAG IFNα-2α Antibody solution (1:100 diluted in Diluent 3 (Meso Scale Diagnostics #R50AP-2) to each well of the plates.
Afterwards plates were sealed with microplate seals and kept at room temperature again under continuous shaking at 700 rpm for two hours. Finally, MSD IFNα-2α plates were washed three times with 150 μl wash buffer (1×HBSS, 0.05% Tween). 150 μl 2× Read buffer was added to each well and plates were immediately measured with the MSD Sector S600 Reader using the vendor barcode.
For data evaluation and calculation, % control calculation of each well was based on the mean of high (DNA stimulated control) and mean of low (unstimulated control) controls by using the following formula:
[counts(sample)−counts(low))/(counts(high)−counts(low))]*100
The IC50 values were calculated using the standard 4 parameter logistic regression formula. Calculation: [y=(a−d)/(1+(x/c)^b)+d], a=low value, d=high value; x=conc M; c=IC50 M; b=slope

[3] = system: cellular cGAS activity in baculovirus-stimulated THP1-Dual cells (IRF dependent Lucia luciferase reporter); experiment: Human cGAS cell assay: inhibition of IFN induction in virus-stimulated THP1 cells (THP1(vir) IC50); type: cell-based; details: Homo sapiens, THP1-Dual
From the text: as §1, §2, §3, §4, §5, §6, §7, §8, §9

[4] = Homo sapiens, THP1-Dual, inhibition of IFN induction in cGAMP-stimulated THP1 cells
[5] = inhibition of IFN induction in virus-stimulated THP1 cells, read-out: THP1(vir) IC50

Structure (SMILES) | IC50 (cGAS) | IC50 [1, 4] | Ratio THP1(cGAMP) IC50 / THP1(vir) IC50 [1] | IC50 [2] | IC50 [3, 5] | IC50 ([1]; cGAMP-stimulated THP1 cells, counter assay) | IC50 ([3]; read-out: THP1(vir) IC50, inhibition of IFN induction in virus-stimulated THP1 cells) | IC50 ([3]; read-out: THP1(vir) IC50, virus-stimulated THP1 cells, IFN induction)
C[C@@H]1N(c2cc(-c3ccnc([S+](C)[O-])c3)cnc2O[C@H]2C[C@@H](C(=O)O)N(c3nc(C(F)F)nc4c3oc3ccccc34)C2)CCOC12COC2 (stereo partly drawn) [Example 5.01, (2S,4S)-1-[4-(Difluoromethyl)-8-oxa-3,5-diazatricyclo[7.4.0.0^2,7]trideca-1(9),2(7),3,5,10,12-hexaen-6-yl]-4-({2′-methanesulfinyl-5-[(95)-9-methyl-2,5-dioxa-8-azaspiro[3.5]nonan-8-yl]-[3,4′-bipyridin]-6-yl}oxy)pyrrolidine-2-carboxylic acid] | 0.005 µM | 22.1 µM | 38 | 0.239 µM | 0.579 µM |  |  | 
C#Cc1cnc(O[C@H]2C[C@@H](C(=O)O)N(c3nc(C)nc4c3oc3cc(C(F)F)ccc34)C2)c(N2CCOC3(COC3)[C@@H]2C)c1 [Example 2.06] | 0.004 µM | 11.9 µM | 189 | 0.052 µM | 0.063 µM |  |  | 
CC#Cc1cnc(O[C@H]2C[C@@H](C(=O)O)N(c3nc(C(F)(F)F)nc4c3oc3ccccc34)C2)c(N2CCOC3(CC3)[C@@H]2C)c1 [Example 6.03] | 0.007 µM | 10.9 µM | 2273 | 0.095 µM | 0.005 µM |  |  | 
C[C@H]1COCCN1c1cc(-c2ccnc(C(F)F)c2)cnc1O[C@H]1C[C@@H](C(=O)O)N(c2nc(C(F)(F)F)nc3c2oc2ccccc23)C1 [Example 3.04] | 0.012 µM | 7.78 µM | 10 | 2.42 µM | 0.757 µM |  |  | 
C[C@@H]1N(c2cc(-n3cccn3)cnc2O[C@H]2C[C@@H](C(=O)O)N(c3nc(C(F)(F)F)nc4c3oc3ccccc34)C2)CCOC12COC2 [Example 10.01, (2S,4S)-4-({3-[(95)-9-methyl-2,5-dioxa-8-azaspiro[3.5]nonan-8-yl]-5-(1H-pyrazol-1-yl)pyridin-2-yl}oxy)-1-[4-(trifluoromethyl)-8-oxa-3,5-diazatricyclo[7.4.0.0^2,7]trideca-1(9),2(7),3,5,10,12-hexaen-6-yl]pyrrolidine-2-carboxylic acid] | 0.005 µM | > 10 µM | >1000 | 0.047 µM | 0.01 µM |  |  | 
C[C@@H]1N(c2cc(-c3cnn(C(F)(F)F)c3)cnc2O[C@H]2C[C@@H](C(=O)O)N(c3nc(C(F)(F)F)nc4c3oc3ccccc34)C2)CCOC12COC2 [Example 3.30] | 0.026 µM | 12.6 µM | 829 | 0.084 µM | 0.015 µM |  |  | 
C#Cc1cnc(O[C@H]2C[C@@H](C(=O)O)N(c3nc(C(F)F)nc4c3oc3ccccc34)C2)c(N2CCCC3(COC3)[C@@H]2C)c1 [Example 1.23] | 0.004 µM | 10.9 µM | 1134 | 0.012 µM | 0.01 µM |  |  | 
C#Cc1cnc(O[C@H]2C[C@@H](C(=O)O)N(c3nc(C)nc4c3oc3cc(F)ccc34)C2)c(N2CCOC3(COC3)[C@@H]2C)c1 [Example 2.08] | 0.003 µM | 18.8 µM | 3490 | 0.006 µM | < 0.005 µM |  |  | 
C[C@@H]1N(c2cccnc2O[C@H]2C[C@@H](C(=O)O)N(c3nc(C(F)F)nc4c3oc3ccccc34)C2)CCOC12COC2 [Example 4.04, (2S,4S)-4-({3-[(9S)-9-methyl-2,5-dioxa-8-azaspiro[3.5]nonan-8-y]-pyridin-2-yl}-oxy)1-[4-(difluoro-methyl)-8-oxa-3,5-diazatricyclo[7.4.0.0^2.7]trideca-1(13),2,4,6,9,11-hexaen-6-yl]pyrrolidine-2-carboxylic acid] | 0.002 µM | > 16.6 µM | >43 | 0.077 µM |  | > 16.6 µM | 0.386 µM | 0.386 µM
CSc1cnc(O[C@H]2C[C@@H](C(=O)O)N(c3nc(C(F)F)nc4c3oc3ccccc34)C2)c(N2CCOC3(COC3)[C@@H]2C)c1 [Example 9.01, (2S,4S)-1-[4-(difluoromethyl)-8-oxa-3,5-diazatricyclo[7.4.0.0^2,7]trideca-1(9),2(7),3,5,10,12-hexaen-6-yl]-4-({3-[(9S)-9-methyl-2,5-dioxa-8-azaspiro[3.5]nonan-8-yl]-5-(methylsulfanyl)pyridin-2-yl}oxy)pyrrolidine-2-carboxylic acid] | 0.006 µM | 19.8 µM | 1254 | 0.038 µM | 0.016 µM |  |  | 
C[C@H]1CN(C#N)CCN1c1cc(Br)cnc1O[C@H]1C[C@@H](C(=O)O)N(c2nc(C(F)F)nc3c2oc2ccccc23)C1 [Example 1.18] | 0.004 µM | 6.51 µM | 27 | 0.226 µM | 0.239 µM |  |  | 
